Data from EP4585606A1, “OL[…] USE AND COMPOSITION THEREOF” (Buddhist Tzu Chi Medical Foundation, priority 2022, dated 2024).

Tested on: human osteoblastic cells hFOB1.19
Test: alkaline phosphatase (ALP) activity, TRACP & ALP detection kit
Type: cell-based
Conditions: hFOB1.19 not treated with the oligopeptides, CaCl2 0.01, 0.06, 0.2, 0.9 and 3.6 µM, 2 days
Experimental: The activity of alkaline phosphatase was measured by a TRACP & ALP detection kit. hFOB1.19 cells were cultured at 2×10^4 cells/well in a 96-well plate for 2 days. After removing the supernatant of the culture, the cells were resuspended in physiological saline. To each well 50 µl of the extract solution was added, and incubated at room temperature for 5 minutes. Then, 50 µl of the matrix solution was added to each well and reacted at 37°C for 60 minutes. Finally, 50 µl of 0.5N NaOH was added to each well to terminate the reaction. After formation of color, the solution was measured for the absorbance at 405 nm.
Alkaline phosphatase is present in bone at a high level, and frequently considered as the indicator for differentiation of osteoblastic cells and growth of bone. In Example 6, human osteoblastic cells hFOB1.19 was not treated with the oligopeptide at the condition of different concentrations of CaCl2, and was treated with the four oligopeptides (0.45 µM) described above at the condition of 3.6 µM CaCl2 for 2 days, to detect the ALP activities in human osteoblastic cells hFOB1.19. […] (In FIGs. 6A and 6B, three separate experiments were performed for each group, and the data were expressed by mean ± SD. Statistical significance: by one-tailed test, *P < 0.05, in respect to the Control groups (A-D).

`[Ca+2].[Cl-].[Cl-]` [CaCl2] was tested, and the ALP activities was “no significant change”.
